From patent publication US20230146455A1, “TREATMENT OF INFLAMMATORY DISEASES WITH PEPTIDES AND PHARMACEUTICAL COMPOSITIONS” (Yuyu Pharma, Inc., priority 2020, published 2023)
Values joined by “and” are separate entries in the source; they are usually repeats but may differ in a detail not shown here. Identical values can stand only once. Where a SMILES comes first, the peptide text is derived from it. [ ]: non-standard residue; d: D form. Hyp = O=C(O)[C@@H]1C[C@@H](O)CN1

Tested on: CCL20/MIP-3 alpha
Test: Example 9 Luminex, LPS hPBMCs: CCL20/MIP-3 alpha
Assay type: cell-based, human
Procedure: Treatment Human PBMCs were pretreated with YY-101, YDE-011 and YDE-043 or reference compound; Xiidra® at various concentration (ranging from 1 nM to 100 uM) for 2 h before stimulation. An equal volume of 0.5% DMSO was used as a vehicle control. Then, the cells were treated with LPS at 5 ug/ml. The supernatants from treated cells were harvested at 24 h and placed in a 96 well for Luminex cytokine & chemokine profiling using a Luminex 200 multiplex assay (Luminex; R&D system, USA).
The main study arm with triplicate wells per group in a 24-well plate: • 1. Blank • 2. PBMC: 0.5% DMSO • 3. PBMC+LPS (5 ug/ml) • 4. PBMC+YY-101 100 uM • 5. PBMC+YY-101 10 uM • 6. PBMC+YY-101 1 uM • 7. PBMC+YY-101 0.1 uM • 8. PBMC+YY-101 0.01 uM • 9. PBMC+LPS (5 ug/ml)+Xiidra®100 uM • 10. PBMC+LPS (5 ug/ml)+Xiidra® 10 uM • 11. PBMC+LPS (5 ug/ml)+Xiidra® 1 uM • 12. PBMC+LPS (5 ug/ml)+Xiidra®0.1 uM • 13. PBMC+LPS (5 ug/ml)+Xiidra®0.01 uM • 14. PBMC+LPS (5 ug/ml)+Xiidra®0.001 uM • 15. PBMC+LPS (5 ug/ml)+YY-101 100 uM • 16. PBMC+LPS (5 ug/ml)+YY-101 10 uM • 17. PBMC+LPS (5 ug/ml)+YY-101 1 uM • 18. PBMC+LPS (5 ug/ml)+YY-101 0.1 uM • 19. PBMC+LPS (5 ug/ml)+YY-101 0.01 uM • 20. PBMC+LPS (5 ug/ml)+YY-101 0.001 uM • 21. PBMC+LPS (5 ug/ml)+YDE-011 100 uM • 22. PBMC+LPS (5 ug/ml)+YDE-011 10 uM • 23. PBMC+LPS (5 ug/ml)+YDE-011 1 uM • 24. PBMC+LPS (5 ug/ml)+YDE-011 0.1 uM • 25. PBMC+LPS (5 ug/ml)+YDE-011 0.01 uM • 26. PBMC+LPS (5 ug/ml)+YDE-011 0.001 uM • 27. PBMC+LPS (5 ug/ml)+YDE-043 100 uM • 28. PBMC+LPS (5 ug/ml)+YDE-043 10 uM • 29. PBMC+LPS (5 ug/ml)+YDE-043 1 uM • 30. PBMC+LPS (5 ug/ml)+YDE-043 0.1 uM • 31. PBMC+LPS (5 ug/ml)+YDE-043 0.01 uM • 32. PBMC+LPS (5 ug/ml)+YDE-043 0.001 uM
Multiplex assay was used to measure 30 cytokines and chemokines. The 1:2, 1:10 and 1:200 diluted cell supernatant and serial dilution of the standard were dispensed into a 96 well plate at 50 ul/well. Then, the pre-mixed cocktail of antibody-coated magnetic beads was dispensed at 50 ul/well and incubated at room temperature for 2 h in a horizontal orbital microplate shaker at 800±500 rpm. The beads were washed using a magnetic device to prevent loss. The biotin-antibody was dispensed in 50 ul of each well and incubated at room temperature for 1 h in a shaker at 800±500 rpm. After washing, streptavidin-PE was added at 50 ul/well and incubated at room temperature for 30 min in a shaker under the same conditions. Finally, after washing, wash buffer (100 ul/well) was added to the plate and incubated in a shaker for 2 min. The Luminex™ 200 setting were set according to the manufacturer's protocol. The data was calculated with a standard five-parameter logistic nonlinear regression analysis of the data (xPonent software 4.2, USA). The levels of cytokine/chemokine are normalized to the live cell counts (1×10^5 cells/mL) and presented as concentrations per mL (pg/mL or ng/mL).

[1] = PBMC + LPS(5 ug/ml) + test article 0.1 uM, Mean
[2] = PBMC + LPS(5 ug/ml) + test article 0.1 uM, individual replicate
[3] = PBMC + LPS(5 ug/ml) + test article 1 uM, Mean
[4] = PBMC + LPS(5 ug/ml) + test article 1 uM, individual replicate
[5] = PBMC + LPS(5 ug/ml) + test article 10 uM, Mean
[6] = PBMC + LPS(5 ug/ml) + test article 10 uM, individual replicate
[7] = PBMC + LPS(5 ug/ml) + test article 100 uM, Mean
[8] = PBMC + LPS(5 ug/ml) + test article 100 uM, individual replicate
[9] = PBMC + test article 0.01 uM, no LPS, Mean
[10] = PBMC + test article 0.01 uM, no LPS, individual replicate
[11] = PBMC + test article 0.1 uM, no LPS, Mean
[12] = PBMC + test article 0.1 uM, no LPS, individual replicate
[13] = PBMC + test article 1 uM, no LPS, Mean
[14] = PBMC + test article 1 uM, no LPS, individual replicate
[15] = PBMC + test article 10 uM, no LPS, Mean
[16] = PBMC + test article 10 uM, no LPS, individual replicate
[17] = PBMC + test article 100 uM, no LPS, Mean
[18] = PBMC + test article 100 uM, no LPS, individual replicate

## CC(C)C[C@H](NC(=O)CNC(=O)[C@H](CC(=O)O)NC(=O)[C@H](CCC(N)=O)NC(=O)CNC(=O)[C@@H]1C[C@@H](O)CN1)C(=O)N[C@@H](C)C(=O)NCC(=O)N1CCC[C@H]1C(=O)N[C@@H](CCCCN)C(=O)O [YY-101] (H-[Hyp]GQDGLAGPK-OH; N-terminus and C-terminus assumed)
PBMC + LPS(5 ug/ml) + test article 0.01 uM, individual replicate
  conc/live cell, CCL20/MIP-3 alpha: 60.0 pg/10^5 and 56.5 pg/10^5 and 67.3 pg/10^5
[1]
  Concentration, CCL20/MIP-3 alpha: 364.1 pg/mL
  MFI, CCL20/MIP-3 alpha: 406.7
  conc/live cell, CCL20/MIP-3 alpha: 62.5 pg/10^5
[2]
  Concentration, CCL20/MIP-3 alpha: 378.5 pg/mL and 364.4 pg/mL and 349.4 pg/mL
  MFI, CCL20/MIP-3 alpha: 424.5 and 407.0 and 388.5
  conc/live cell, CCL20/MIP-3 alpha: 61.0 pg/10^5 and 70.1 pg/10^5 and 56.4 pg/10^5
[3]
  Concentration, CCL20/MIP-3 alpha: 338.5 pg/mL
  MFI, CCL20/MIP-3 alpha: 375.0
  conc/live cell, CCL20/MIP-3 alpha: 52.1 pg/10^5
[4]
  Concentration, CCL20/MIP-3 alpha: 323.0 pg/mL and 330.0 pg/mL and 362.4 pg/mL
  MFI, CCL20/MIP-3 alpha: 356.0 and 364.5 and 404.5
  conc/live cell, CCL20/MIP-3 alpha: 51.3 pg/10^5 and 46.5 pg/10^5 and 58.4 pg/10^5
[5]
  Concentration, CCL20/MIP-3 alpha: 368.2 pg/mL
  MFI, CCL20/MIP-3 alpha: 411.8
  conc/live cell, CCL20/MIP-3 alpha: 55.3 pg/10^5
[6]
  Concentration, CCL20/MIP-3 alpha: 324.3 pg/mL and 377.7 pg/mL and 402.6 pg/mL
  MFI, CCL20/MIP-3 alpha: 357.5 and 423.5 and 454.5
  conc/live cell, CCL20/MIP-3 alpha: 54.0 pg/10^5 and 59.0 pg/10^5 and 53.0 pg/10^5
[7]
  Concentration, CCL20/MIP-3 alpha: 578.6 pg/mL
  MFI, CCL20/MIP-3 alpha: 677.7
  conc/live cell, CCL20/MIP-3 alpha: 100.0 pg/10^5
[8]
  Concentration, CCL20/MIP-3 alpha: 590.1 pg/mL and 591.7 pg/mL and 553.9 pg/mL
  MFI, CCL20/MIP-3 alpha: 692.5 and 694.5 and 646.0
  conc/live cell, CCL20/MIP-3 alpha: 93.7 pg/10^5 and 95.4 pg/10^5 and 110.8 pg/10^5
[9]
  Concentration, CCL20/MIP-3 alpha: 12.1 pg/mL
  MFI, CCL20/MIP-3 alpha: 11.0
  conc/live cell, CCL20/MIP-3 alpha: 2.5 pg/10^5
[10]
  Concentration, CCL20/MIP-3 alpha: 7.3 pg/mL and 16.8 pg/mL
  MFI, CCL20/MIP-3 alpha: 7.5 and 14.5
  conc/live cell, CCL20/MIP-3 alpha: 1.4 pg/10^5 and 3.5 pg/10^5
[11]
  Concentration, CCL20/MIP-3 alpha: 9.5 pg/mL
  MFI, CCL20/MIP-3 alpha: 9.0
  conc/live cell, CCL20/MIP-3 alpha: 1.8 pg/10^5
[12]
  Concentration, CCL20/MIP-3 alpha: 7.3 pg/mL and 11.6 pg/mL
  MFI, CCL20/MIP-3 alpha: 7.5 and 10.5
  conc/live cell, CCL20/MIP-3 alpha: 1.7 pg/10^5 and 2.0 pg/10^5
[13]
  Concentration, CCL20/MIP-3 alpha: 8.8 pg/mL
  MFI, CCL20/MIP-3 alpha: 8.5
  conc/live cell, CCL20/MIP-3 alpha: 1.6 pg/10^5
[14]
  Concentration, CCL20/MIP-3 alpha: 7.3 pg/mL and 10.2 pg/mL
  MFI, CCL20/MIP-3 alpha: 7.5 and 9.5
  conc/live cell, CCL20/MIP-3 alpha: 1.3 pg/10^5 and 1.9 pg/10^5
[15]
  Concentration, CCL20/MIP-3 alpha: 41.3 pg/mL
  MFI, CCL20/MIP-3 alpha: 36.5
  conc/live cell, CCL20/MIP-3 alpha: 6.6 pg/10^5
[16]
  Concentration, CCL20/MIP-3 alpha: 57.4 pg/mL and 25.3 pg/mL
  MFI, CCL20/MIP-3 alpha: 51.5 and 21.5
  conc/live cell, CCL20/MIP-3 alpha: 9.0 pg/10^5 and 4.1 pg/10^5
[17]
  Concentration, CCL20/MIP-3 alpha: 22.4 pg/mL
  MFI, CCL20/MIP-3 alpha: 19.3
  conc/live cell, CCL20/MIP-3 alpha: 3.4 pg/10^5
[18]
  Concentration, CCL20/MIP-3 alpha: 29.8 pg/mL and 14.9 pg/mL
  MFI, CCL20/MIP-3 alpha: 25.5 and 13.0
  conc/live cell, CCL20/MIP-3 alpha: 4.7 pg/10^5 and 2.1 pg/10^5
At 100.iM, LPS 5 ug/mL 24 hrs
  LPS-induced CCL20 levels (in words): further increased
